One block for each molecule: values may come before it. Numbered stars: 1 amine (or outer) side, 2 acyl side, 3 side chain; on linkers, the order of the positions; unused ones are H or OH. Bridge positions count the residues as written; N and C are the ends. Square brackets hold non-standard residues; d marks the D form. Peptide text beside a SMILES is read from it. I, II: the chains in the order shown. ξ: configuration not given here. Phe(4-tBu) = CC(C)(C)c1ccc(C[C@H](N)C(=O)O)cc1; Diglycolyl = O=C(COCC(=O)[*:2])[*:1]; NMeR = CN[C@@H](CCCNC(=N)N)C(=O)O; β3hE = N[C@@H](CCC(=O)O)CC(=O)O; Thr(3ξ) = CC(O)[C@H](N)C(=O)O; Pen = CC(C)(S)[C@H](N)C(=O)O
What was measured:
α4β7 [1] = molecular target: T1, α4β7 (Mus musculus, UniProt P26011+Q00651); assay: α4β7 receptor occupancy in whole blood and Peyer's patches after oral dosing; format: in vivo, C57BL/6 mice
T1 construct: mice were euthanized and whole blood/plasma and Peyer's patches were collected; from tissue; host or cells: whole blood and Peyer's patches of C57BL/6 mice
Description: One hour following dosing, mice were euthanized and whole blood/plasma and Peyer's patches were collected. Peyer's patches were dispersed in 1 mL RPMI medium with 2% FBS without washing step. Whole blood and single cell suspension of Peyer's patches (100 uL out of 1 mL total) were submitted for flow cytometry to determine α4β7 receptor occupancy. % RO=(1−(% positive test sample/% positive median vehicle control))*100. Plasma and Peyer's patches dispersed in single cell suspension (500 uL of 1 mL total) were also analyzed for drug exposure.

α4β7 [2] = molecular target: T2, α4β7 (Homo sapiens, UniProt P13612+P26010); assay: α4β7 internalization / surface expression by flow cytometry; format: cell-based; conditions: human PBMCs, 100 nM, 24 h
T2 construct: endogenous in cells
Description: Blood samples from human donors were obtained from the Stanford Blood Center (Stanford, Calif.) under an RB-approved research protocol. Blood was drawn into BD Vacutainer sodium heparin blood collection tubes (BD Biosciences, Cat #362753). Peripheral blood mononuclear cells (PBMCs) were isolated from blood using a SepMate-50 tube and LymphoPrep per the manufacturer's protocol. CD4^+ T memory cells were enriched after PBMC isolation, using an EasySep kit (StemCell Technologies) per the manufacturer's protocol.
After incubation, an aliquot of cells from each reaction was stained for α4β7 expression.
After incubation, cells were washed extensively to remove excess peptide. For each reaction, an aliquot of cells was stained for α4β7 expression, while a separate aliquot was tested for adhesion to MAdCAM1.
An aliquot of cells were collected before and 24 h post peptide addition and stained for α4β7 expression. Afterwards, cells were extensively washed to remove excess peptide and incubated in fresh complete culture medium (without MnCl2) for an additional seven days. On day 1, 2, 4, 5, and 7 days after peptide washout, aliquots were stained for α4β7 expression.
Following peptide incubation, an aliquot of each reaction was stained for surface expression of α4β7 in preparation for flow cytometry. Cells were stained at 4° C. for 30 minutes, washed twice in DPBS containing 0.5% BSA (PBS/BSA), incubated with streptavidin BV421 (diluted 1:1000) at 4° C. for 30 minutes, washed twice in PBS/BSA, and then resuspended in PBS/BSA for analysis. Where relevant, a “fluorescence minus one” (FMO) sample was used as the staining control.
Samples were analyzed by flow cytometry on a BD (Franklin Lakes, N.J.) FACSVerse flow cytometer equipped with the following lasers: 405 nm (violet), 488 nm (blue), 561 nm (yellow-green), and 640 nm (red). CD4^+ T memory cells were identified as CD4^+, […], CD197^+ lymphocytes. α4β7 expression within CD4^+ T memory cells was identified based on staining with the Vedolizumab BV421 complex; staining was analyzed using BD FACSuite software, version 1.0.5. Where applicable, values were normalized to no-peptide controls and expressed as percentages to permit assessment of changes in the indicated parameter. Data were plotted and analyzed using Prism software (version 7; GraphPad, La Jolla, Calif.).

α4β7 integrin = molecular target: T3, α4β7 integrin (Homo sapiens, UniProt P13612+P26010); assay: Inhibition of MAdCAM1-mediated CD4+ T cell proliferation (plate bound anti-CD3 + MAdCAM1); format: cell-based; conditions: Compound A 1 uM, inactive analog 1 uM, vedolizumab 500 ng/mL; three days
T3 construct: endogenous in cells; host or cells: primary human CD4+ T cells enriched from PBMCs of healthy donors
Description: PBMCs were purified from healthy human donors and enrichment of CD4+ T cells was performed. […] Phenotype, distribution of T-helper (Th) subsets and % RO analyses were conducted by flow cytometry of freshly stained live samples.

[3] = molecular target: α4β7 integrin (mouse, on cells of whole blood and Peyer's patches) (mouse) (UniProt Q00651); assay: flow cytometry α4β7 receptor occupancy in Peyer's patches, mice dosed orally 3 or 30 mg/kg
Sequence of α4β7 integrin (mouse, on cells of whole blood and Peyer's patches) (mouse) (Q00651 41-1039, chain 1 of 2): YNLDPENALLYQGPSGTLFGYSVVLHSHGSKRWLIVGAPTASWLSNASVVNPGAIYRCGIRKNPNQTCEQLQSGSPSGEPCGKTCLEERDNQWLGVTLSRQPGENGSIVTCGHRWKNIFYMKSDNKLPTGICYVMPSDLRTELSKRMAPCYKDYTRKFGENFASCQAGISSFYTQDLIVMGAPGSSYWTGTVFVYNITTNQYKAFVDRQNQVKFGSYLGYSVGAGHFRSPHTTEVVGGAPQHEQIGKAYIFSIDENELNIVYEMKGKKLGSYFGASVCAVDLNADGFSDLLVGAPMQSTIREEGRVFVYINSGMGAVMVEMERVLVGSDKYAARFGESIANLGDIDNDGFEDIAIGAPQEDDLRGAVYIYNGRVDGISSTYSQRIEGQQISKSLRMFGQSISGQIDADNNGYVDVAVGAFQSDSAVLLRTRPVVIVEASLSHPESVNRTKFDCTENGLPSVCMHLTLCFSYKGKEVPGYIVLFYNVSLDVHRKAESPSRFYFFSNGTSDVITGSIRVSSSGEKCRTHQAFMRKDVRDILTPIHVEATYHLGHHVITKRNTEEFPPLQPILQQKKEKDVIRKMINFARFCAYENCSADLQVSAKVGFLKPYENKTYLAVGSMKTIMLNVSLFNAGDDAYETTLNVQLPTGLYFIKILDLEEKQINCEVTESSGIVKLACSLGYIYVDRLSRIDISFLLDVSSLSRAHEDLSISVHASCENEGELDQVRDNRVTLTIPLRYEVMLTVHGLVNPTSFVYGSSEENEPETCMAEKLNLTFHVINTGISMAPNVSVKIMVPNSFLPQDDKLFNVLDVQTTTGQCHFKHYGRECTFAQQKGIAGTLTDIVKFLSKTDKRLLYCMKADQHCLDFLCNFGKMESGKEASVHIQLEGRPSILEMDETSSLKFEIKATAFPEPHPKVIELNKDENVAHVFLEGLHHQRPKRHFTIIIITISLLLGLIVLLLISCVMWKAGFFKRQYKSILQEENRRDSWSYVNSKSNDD
Sequence of α4β7 integrin (mouse, on cells of whole blood and Peyer's patches) (mouse) (P26011 20-806, chain 2 of 2, further chain): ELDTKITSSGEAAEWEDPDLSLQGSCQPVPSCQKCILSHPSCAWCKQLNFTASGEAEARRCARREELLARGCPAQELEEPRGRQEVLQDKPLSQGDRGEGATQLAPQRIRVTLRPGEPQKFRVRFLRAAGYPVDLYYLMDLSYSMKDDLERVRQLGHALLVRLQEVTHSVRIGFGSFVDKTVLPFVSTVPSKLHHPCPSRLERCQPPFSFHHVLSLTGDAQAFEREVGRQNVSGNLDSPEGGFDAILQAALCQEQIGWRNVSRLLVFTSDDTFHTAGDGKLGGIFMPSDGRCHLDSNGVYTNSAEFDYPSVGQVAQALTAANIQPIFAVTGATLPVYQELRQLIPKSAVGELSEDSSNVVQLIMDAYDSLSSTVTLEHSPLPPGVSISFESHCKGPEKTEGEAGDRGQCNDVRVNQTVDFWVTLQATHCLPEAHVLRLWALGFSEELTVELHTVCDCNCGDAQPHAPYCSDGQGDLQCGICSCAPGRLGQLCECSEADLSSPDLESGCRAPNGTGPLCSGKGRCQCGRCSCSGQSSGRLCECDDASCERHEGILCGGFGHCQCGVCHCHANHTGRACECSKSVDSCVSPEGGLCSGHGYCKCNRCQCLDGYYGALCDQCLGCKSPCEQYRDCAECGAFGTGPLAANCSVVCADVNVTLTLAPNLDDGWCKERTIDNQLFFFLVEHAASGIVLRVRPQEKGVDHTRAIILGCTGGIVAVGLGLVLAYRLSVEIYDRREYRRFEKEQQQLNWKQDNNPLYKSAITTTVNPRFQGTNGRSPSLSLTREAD

T1 sequence (Q00651 41-1039): as the sequence (Q00651 41-1039, chain 1 of 2) above
T1 sequence (P26011 20-806): as the sequence (P26011 20-806, chain 2 of 2, further chain) above

- receptor occupancy in Peyer's patches (α4β7 [1]; 3 and 30 mg/kg PO, 1 h post dose, some animals): 100%
- receptor occupancy in whole blood and Peyer's patches, 30 mg/kg vs 3 mg/kg dose group (α4β7 [1]; PO): comparable
- receptor occupancy in Peyer's patches compared to whole blood (α4β7 [1]; both dose groups (3 and 30 mg/kg PO)): significantly higher
- internalization of α4β7 (α4β7 [2]): caused internalization of α4β7
Molecule: CC(=O)N[C@@H]1C(=O)N(C)[C@@H](CCCNC(=N)N)C(=O)N[C@@H](CO)C(=O)N[C@@H](CC(=O)O)C(=O)N[C@@H](C(C)O)C(=O)N[C@@H](CC(C)C)C(=O)N[C@H](C(=O)N[C@@H](Cc2ccc(C(C)(C)C)cc2)C(=O)N[C@@H](CCC(=O)O)CC(=O)N[C@H](CCCCNC(=O)COCC(=O)NCCCC[C@@H](NC(=O)C[C@H](CCC(=O)O)NC(=O)[C@H](Cc2ccc(C(C)(C)C)cc2)NC(=O)[C@H]2NC(=O)[C@H](CC(C)C)NC(=O)[C@H](C(C)O)NC(=O)[C@H](CC(=O)O)NC(=O)[C@H](CO)NC(=O)[C@H](CCCNC(=N)N)N(C)C(=O)[C@@H](NC(C)=O)C(C)(C)SSC2(C)C)C(N)=O)C(N)=O)C(C)(C)SSC1(C)C (stereo partly drawn) [Compound B, (Ac-Pen-(N-Me-Arg)-Ser-Asp-Thr-Leu-Pen-(Phe(4-tBu))-(β-homo-Glu)-(D-Lys)-NH2)2 (SEQ ID NO. 6) with linker=DIG (diglycolic acid)] (I: Ac-[Pen][NMeR]SD[Thr(3ξ)]L[Pen][Phe(4-tBu)][β3hE][dK]-NH2 / II: Ac-[Pen][NMeR]SD[Thr(3ξ)]L[Pen][Phe(4-tBu)][β3hE][dK]-NH2; disulfide I:1-I:7, II:1-II:7; linker I:10-II:10 via Diglycolyl)

Molecule: vedolizumab: intravenously administered humanized IgG monoclonal antibody directed against α4β7 [reference compound]
- inhibition of MAdCAM1-mediated proliferation of CD4+ T-cells (α4β7 integrin): level of inhibition was similar to inhibition by vedolizumab

- receptor occupancy (%) [3]: 100%
B1: Compound B (peptide)
peptide: Ac-[Pen][NMeR]SDTL[Pen][Phe(4-tBu)][β3hE][dK]-NH2
modifications: disulfide 1-7; also: homodimer linked through D-Lys residues by diglycolic acid (DIG)

Source: patent US20230063321A1, “Methods for Treating Inflammatory Bowel Diseases with alpha4beta7 Integrin Antagonists” (Protagonist Therapeutics, Inc., priority 2020, published 2023)
